By IC50 is commonly meant the concentration needed to halve the response being measured.

This assay addresses T1, Recombinant (1-346) HPK1 (h) (Homo sapiens, UniProt Q92918).
T1 construct: Recombinant (1-346) HPK1 (h) is incubated with 8 mM MOPS pH 7.0
T1 sequence (Q92918 1-346): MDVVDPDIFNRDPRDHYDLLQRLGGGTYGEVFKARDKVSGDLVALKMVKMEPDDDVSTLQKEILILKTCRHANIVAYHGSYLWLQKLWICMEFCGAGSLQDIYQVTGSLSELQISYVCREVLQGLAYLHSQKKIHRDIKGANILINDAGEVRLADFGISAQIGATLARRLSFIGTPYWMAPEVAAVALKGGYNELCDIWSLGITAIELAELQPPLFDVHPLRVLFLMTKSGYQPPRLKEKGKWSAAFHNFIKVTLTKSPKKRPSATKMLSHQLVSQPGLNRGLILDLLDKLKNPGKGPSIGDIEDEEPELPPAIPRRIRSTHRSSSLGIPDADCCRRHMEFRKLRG
In words: HPK1 human STE kinase enzymatic radiometric assay. The class given is biochemical. The conditions noted are these: read-out: HPK1 IC50 nM Range. How it is done: (a) HPK1 Human STE Kinase Enzymatic Radiometric Assay
A stock solution of 10 mM of test compound is prepared in DMSO. The compound plate was prepared by 3-fold and 9-point serial dilutions. Recombinant (1-346) HPK1 (h) is incubated with 8 mM MOPS pH 7.0, 0.2 mM EDTA, 0.33 mg/mL myelin basic protein, 10 mM MgAcetate and [gamma-33P]-ATP (specific activity and concentration as required). The reaction is initiated by the addition of the Mg/ATP mix. After incubation for 40 minutes at RT, the reaction is stopped by the addition of phosphoric acid to a concentration of 0.5%, 10 μL of the reaction is then spotted onto a P30 filtermat and washed four times for 4 minutes in 0.425% phosphoric acid and once in methanol prior to drying and scintillation counting. For more details of kinase assay protocols, see: Gao, Y. et. al.; Biochem J.451 (2): 313-328, 2013.
For the compound `Cc1[nH]c(=O)c2ccc(-c3nc(-c4ccc(N5CCN(C(C)C)CC5)cc4)c(F)nc3N)cc2c1Cl` [Example I-43, 6-(3-amino-5-fluoro-6-(4-(4-isopropylpiperazin-1-yl)phenyl)pyrazin-2-yl)-4-chloro-3-methylisoquinolin-1(2H)-one], the IC50 fell in the range of 0.1 to 10 nM. The same measure for `C[C@@H]1CN(C)CCN1c1ccc(-c2nc(-c3cc4c(cc3F)C(=O)NCC4)c(N)nc2F)cc1` [Example I-53, (R)-6-(3-amino-6-(4-(2,4-dimethylpiperazin-1-yl)phenyl)-5-fluoropyrazin-2-yl)-7-fluoro-3,4-dihydroisoquinolin-1(2H)-one]: 0.1 to 10 nM. The same measure for `Nc1nc(F)c(-c2ccc(C3CCOCC3)c(CN3CCC3)c2)nc1-c1ccc2c(c1)CCNC2=O` [Example I-169, 6-(3-amino-6-(3-(azetidin-1-ylmethyl)-4-(tetrahydro-2H-pyran-4-yl)phenyl)-5-fluoropyrazin-2-yl)-3,4-dihydroisoquinolin-1(2H)-one]: 0.1 to 10 nM; for `CN(C)[C@@H]1COc2ccc(-c3nc(-c4cc(F)c5c(=O)[nH]cc(F)c5c4)c(N)nc3F)cc21` [Example I-253, (S)-6-(3-amino-6-(3-(dimethylamino)-2,3-dihydrobenzofuran-5-yl)-5-fluoropyrazin-2-yl)-4,8-difluoroisoquinolin-1(2H)-one]: 0.1 to 10 nM; for `C[C@@H]1CCCN1Cc1cc(-c2nc(-c3cc(F)c4c(c3)CCNC4=O)c(N)nc2F)ccc1C1CCOCC1` [Example I-218, (R)-6-(3-amino-5-fluoro-6-(3-((2-methylpyrrolidin-1-yl)methyl)-4-(tetrahydro-2H-pyran-4-yl)phenyl)pyrazin-2-yl)-8-fluoro-3,4-dihydroisoquinolin-1(2H)-one]: 11 to 100 nM. As for `Cc1c[nH]c(=O)c2ccc(-c3nc(-c4ccc([C@]56C[C@H]5CN(C)C6)cc4)c(F)nc3N)cc12` [Example I-75, 6-(3-amino-5-fluoro-6-(4-((1S,5R)-3-methyl-3-azabicyclo[3.1.0]hexan-1-yl)phenyl)pyrazin-2-yl)-4-methylisoquinolin-1(2H)-one], the IC50 was in the range of 11 to 100 nM. Turning to `Cc1c[nH]c(=O)c2ccc(-c3nc(-c4cccc(CN(C)C)c4)c(F)nc3N)cc12` [Example I-280, 6-(3-amino-6-(3-((dimethylamino)methyl)phenyl)-5-fluoropyrazin-2-yl)-4-methylisoquinolin-1(2H)-one], the IC50 was 11 to 100 nM. On to `Cc1nc2cc(-c3nc(-c4ccc(N5CCOCC5)c(CN(C)C)c4)c(F)nc3N)ccc2c(=O)[nH]1` [Example I-77, 7-(3-amino-6-(3-((dimethylamino)methyl)-4-morpholinophenyl)-5-fluoropyrazin-2-yl)-2-methylquinazolin-4(3H)-one], for which the IC50 lay within 11 to 100 nM. Consider `Cc1[nH]c(=O)c2ccc(-c3nc(-c4ccc(N5CCN(CC6CC6)CC5)cc4)c(F)nc3N)cc2c1F` [Example I-106, 6-(3-amino-6-(4-(4-(cyclopropylmethyl)piperazin-1-yl)phenyl)-5-fluoropyrazin-2-yl)-4-fluoro-3-methylisoquinolin-1(2H)-one], for which the IC50 lay in the range of 0.1 to 10 nM. The same measure for `CN(C)Cc1cc(-c2nc(-c3cc(F)c4c(c3)CCNC4=O)c(N)nc2F)ccc1N1CCOCC1` [Example I-88, 6-(3-amino-6-(3-((dimethylamino)methyl)-4-morpholinophenyl)-5-fluoropyrazin-2-yl)-8-fluoro-3,4-dihydroisoquinolin-1(2H)-one]: 11 to 100 nM. Turning to `COC1CCN(Cc2cc(-c3nc(-c4ccc5c(c4)CCNC5=O)c(N)nc3F)ccc2N2CCOCC2)CC1` [Example I-138, 6-(3-amino-5-fluoro-6-(3-((4-methoxypiperidin-1-yl)methyl)-4-morpholinophenyl)pyrazin-2-yl)-3,4-dihydroisoquinolin-1(2H)-one], the IC50 was in the range of 11 to 100 nM. For `CN(C)[C@@H]1COc2ccc(-c3nc(-c4ccc5c(=O)[nH]cc(Cl)c5c4)c(N)nc3F)cc21` [Example I-252, (S)-6-(3-amino-6-(3-(dimethylamino)-2,3-dihydrobenzofuran-5-yl)-5-fluoropyrazin-2-yl)-4-chloroisoquinolin-1(2H)-one], the IC50 is 0.1 to 10 nM. The same measure for `C[C@@H]1CN(c2ccc(-c3nc(-c4ccc5c(c4)CCNC5=O)c(N)nc3F)cc2CN(C)C)C[C@H](C)O1` [Example I-198, 6-(3-amino-6-(3-((dimethylamino)methyl)-4-((2R,6S)-2,6-dimethylmorpholino)phenyl)-5-fluoropyrazin-2-yl)-3,4-dihydroisoquinolin-1(2H)-one]: 0.1 to 10 nM. The same measure for `CN(C)[C@@H]1COc2ccc(-c3nc(-c4ccc5c(=O)[nH]ccc5c4)c(N)nc3F)cc21` [Example I-283, (S)-6-(3-amino-6-(3-(dimethylamino)-2,3-dihydrobenzofuran-5-yl)-5-fluoropyrazin-2-yl)isoquinolin-1(2H)-one]: 11 to 100 nM.

For the compound `Nc1nc(F)c(-c2ccc(N3CCN(C4CCC4)CC3)cc2)nc1-c1cc(F)c2c(c1)CCNC2=O` [Example I-47, 6-(3-amino-6-(4-(4-cyclobutylpiperazin-1-yl)phenyl)-5-fluoropyrazin-2-yl)-8-fluoro-3,4-dihydroisoquinolin-1(2H)-one], the IC50 lay within 0.1 to 10 nM.

As to `Cc1nc2cc(-c3nc(-c4ccc(N5C[C@@H](C)O[C@@H](C)C5)c(CN(C)C)c4)c(F)nc3N)cc(F)c2c(=O)[nH]1` [Example I-196, 7-(3-amino-6-(3-((dimethylamino)methyl)-4-((2R,6S)-2,6-dimethylmorpholino)phenyl)-5-fluoropyrazin-2-yl)-5-fluoro-2-methylquinazolin-4(3H)-one], the IC50 lay in the range of 11 to 100 nM. The same measure for `Cc1[nH]c(=O)c2ccc(-c3nc(-c4ccc(N5CC6(CN(C)CCO6)C5)cc4)c(F)nc3N)cc2c1F` [Example I-123, 6-(3-amino-5-fluoro-6-(4-(8-methyl-5-oxa-2,8-diazaspiro[3.5]nonan-2-yl)phenyl)pyrazin-2-yl)-4-fluoro-3-methylisoquinolin-1(2H)-one]: 11 to 100 nM; for `Cc1nc2cc(-c3nc(-c4ccc(N5CCN(C6CCC6)CC5)cc4)c(F)nc3N)ccc2c(=O)[nH]1` [Example I-76, 7-(3-amino-6-(4-(4-cyclobutylpiperazin-1-yl)phenyl)-5-fluoropyrazin-2-yl)-2-methylquinazolin-4(3H)-one]: 11 to 100 nM; for `Cc1c[nH]c(=O)c2cc(F)c(-c3nc(-c4ccc(C5CCOCC5)c(CN(C)C)c4)c(F)nc3N)cc12` [Example I-235, 6-(3-amino-6-(3-((dimethylamino)methyl)-4-(tetrahydro-2H-pyran-4-yl)phenyl)-5-fluoropyrazin-2-yl)-7-fluoro-4-methylisoquinolin-1(2H)-one]: 0.1 to 10 nM. For the compound `Cc1c[nH]c(=O)c2c(F)cc(-c3nc(-c4ccc(N5CCN(C(C)C)CC5)cc4)c(F)nc3N)cc12` [Example I-166, 6-(3-amino-5-fluoro-6-(4-(4-isopropylpiperazin-1-yl)phenyl)pyrazin-2-yl)-8-fluoro-4-methylisoquinolin-1(2H)-one], the IC50 lay within 0.1 to 10 nM. With `CN1CCN(c2ccc(-c3nc(-c4cc5c(cc4F)C(=O)NCC5)c(N)nc3F)cc2)CC1` [Example I-54, 6-(3-amino-5-fluoro-6-(4-(4-methylpiperazin-1-yl)phenyl)pyrazin-2-yl)-7-fluoro-3,4-dihydroisoquinolin-1(2H)-one], the IC50 lay within 0.1 to 10 nM.

For `CN(C)Cc1cc(-c2nc(-c3ccc4c(c3)CCNC4=O)c(N)nc2F)c(F)cc1N1CCOCC1` [Example I-258, 6-(3-amino-6-(5-((dimethylamino)methyl)-2-fluoro-4-morpholinophenyl)-5-fluoropyrazin-2-yl)-3,4-dihydroisoquinolin-1(2H)-one], the IC50 lay within 101 to 1000 nM. The same measure for `CCN(C)Cc1c(N2CCOCC2)ccc(-c2nc(-c3cc(F)c4c(c3)CCNC4=O)c(N)nc2F)c1F` [Example I-247, 6-(3-amino-6-(3-((ethyl(methyl)amino)methyl)-2-fluoro-4-morpholinophenyl)-5-fluoropyrazin-2-yl)-8-fluoro-3,4-dihydroisoquinolin-1(2H)-one]: 11 to 100 nM; for `CCN(C)Cc1cc(-c2nc(-c3ccc4c(=O)[nH]cc(F)c4c3)c(N)nc2F)cc(C)c1OC` [Example I-298, 6-(3-amino-6-(3-((ethyl(methyl)amino)methyl)-4-methoxy-5-methylphenyl)-5-fluoropyrazin-2-yl)-4-fluoroisoquinolin-1(2H)-one]: 11 to 100 nM; for `CN(C)[C@@H]1CCOc2ccc(-c3nc(-c4cc5c(cc4F)C(=O)NCC5)c(N)nc3F)cc21` [Example I-288, (R)-6-(3-amino-6-(4-(dimethylamino)chroman-6-yl)-5-fluoropyrazin-2-yl)-7-fluoro-3,4-dihydroisoquinolin-1(2H)-one]: 11 to 100 nM.

As for `CN(C)Cc1cc(-c2nc(-c3ccc4c(=O)[nH]cc(F)c4c3)c(N)nc2F)cc2c1OCCO2` [Example I-269, 6-(3-amino-6-(8-((dimethylamino)methyl)-2,3-dihydrobenzo[b][1,4]dioxin-6-yl)-5-fluoropyrazin-2-yl)-4-fluoroisoquinolin-1(2H)-one], the IC50 was in the range of 0.1 to 10 nM.

The values are drawn from patent US20240425479A1, “HALO-SUBSTITUTED AMINO AZA-HETEROARYL COMPOUNDS AS INHIBITORS OF THE HAEMATOPOIETIC PROGENITOR KINASE 1 (HPK1)” (priority 2021, published 2024).
